In the supplement of paper PMC10883282:

Tests used:
Test in all cases: relative viability vs DMSO control (72 h) (fraction); higher = more viable cells
A204 = system: A204
Method in brief: (§1)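 Sarcoma cell lines were seeded in 384-well plates at densities set to reach 80–90% confluence. After 24 h, 2.5 µl of serially diluted compound was added (source plates 10 mM to 0.0002 mM), and plates were held 72 h at 37 °C, 5% CO2, with 0.1% DMSO vehicle and a 5 µM positive control. Relative viability came from ATPLite readings as percent growth, averaged over up to triplicate wells. Data were rescaled so full viability equals 1 and none equals 0.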

G401 = system: G401
Method in brief: as §1

HS729 = system: HS729
Method in brief: as §1

KHOS-240S = system: KHOS-240S
Method in brief: as §1

MES-SA = system: MES-SA
Method in brief: as §1

SK-ES-1 = system: SK-ES-1
Method in brief: as §1

SK-LMS-1 = system: SK-LMS-1
Method in brief: as §1

SW1353 = system: SW1353
Method in brief: as §1

SW684 = system: SW684
Method in brief: as §1

SW872 = system: SW872
Method in brief: as §1

SW982 = system: SW982
Method in brief: as §1

SYO-1 = system: SYO-1
Method in brief: as §1

C[C@@H]1CN(C(=O)c2ccc(NC(=O)c3cc(O[C@H](C)c4c(Cl)ccc(F)c4Cl)c(N)nn3)cc2)C[C@H](C)N1 [Ensartinib]
Settings | relative viability
A204, 0.00017 µM | 1.069
A204, 0.00051 µM | 1.07
A204, 0.00152 µM | 1.06
A204, 0.00457 µM | 1.05
A204, 0.01372 µM | 1.05
A204, 0.04115 µM | 1.05
A204, 0.1235 µM | 1.04
A204, 0.3704 µM | 1.06
A204, 1.111 µM | 0.98
A204, 3.333 µM | 0.806
A204, 10 µM | 0.326
G401, 0.00017 µM | 0.954
G401, 0.00051 µM | 0.983
G401, 0.00152 µM | 0.98
G401, 0.00457 µM | 0.9873
G401, 0.01372 µM | 1.01
G401, 0.04115 µM | 1.019
G401, 0.1235 µM | 1.05
G401, 0.3704 µM | 0.946
G401, 1.111 µM | 0.771
G401, 3.333 µM | 0.49
G401, 10 µM | 0.0293
HS729, 0.00017 µM | 0.96
HS729, 0.00051 µM | 1.02
HS729, 0.00152 µM | 1.03
HS729, 0.00457 µM | 1.01
HS729, 0.01372 µM | 0.998
HS729, 0.04115 µM | 0.986
HS729, 0.1235 µM | 0.955
HS729, 0.3704 µM | 0.888
HS729, 1.111 µM | 0.764
HS729, 3.333 µM | 0.594
HS729, 10 µM | 0.207
KHOS-240S, 0.00017 µM | 0.995
KHOS-240S, 0.00051 µM | 1.02
KHOS-240S, 0.00152 µM | 1.02
KHOS-240S, 0.00457 µM | 1
KHOS-240S, 0.01372 µM | 1.03
KHOS-240S, 0.04115 µM | 1.02
KHOS-240S, 0.1235 µM | 1.01
KHOS-240S, 0.3704 µM | 0.994
KHOS-240S, 1.111 µM | 0.847
KHOS-240S, 3.333 µM | 0.579
KHOS-240S, 10 µM | 0.135
MES-SA, 0.00017 µM | 0.921
MES-SA, 0.00051 µM | 0.896
MES-SA, 0.00152 µM | 0.938
MES-SA, 0.00457 µM | 0.929
MES-SA, 0.01372 µM | 0.932
MES-SA, 0.04115 µM | 0.926
MES-SA, 0.1235 µM | 0.961
MES-SA, 0.3704 µM | 0.933
MES-SA, 1.111 µM | 0.498
MES-SA, 3.333 µM | 0.296
MES-SA, 10 µM | 0.1
SK-ES-1, 0.00017 µM | 0.934
SK-ES-1, 0.00051 µM | 0.966
SK-ES-1, 0.00152 µM | 0.987
SK-ES-1, 0.00457 µM | 1
SK-ES-1, 0.01372 µM | 0.974
SK-ES-1, 0.04115 µM | 0.972
SK-ES-1, 0.1235 µM | 0.97
SK-ES-1, 0.3704 µM | 0.857
SK-ES-1, 1.111 µM | 0.457
SK-ES-1, 3.333 µM | 0.0368
SK-ES-1, 10 µM | 0.00643
SK-LMS-1, 0.00017 µM | 0.995
SK-LMS-1, 0.00051 µM | 0.9982
SK-LMS-1, 0.00152 µM | 1.01
SK-LMS-1, 0.00457 µM | 1.04
SK-LMS-1, 0.01372 µM | 1.03
SK-LMS-1, 0.04115 µM | 1.02
SK-LMS-1, 0.1235 µM | 1.01
SK-LMS-1, 0.3704 µM | 0.83
SK-LMS-1, 1.111 µM | 0.656
SK-LMS-1, 3.333 µM | 0.53
SK-LMS-1, 10 µM | 0.0598
SW684, 0.00017 µM | 1.05
SW684, 0.00051 µM | 1.02
SW684, 0.00152 µM | 1.08
SW684, 0.00457 µM | 1.06
SW684, 0.01372 µM | 1.06
SW684, 0.04115 µM | 1.07
SW684, 0.1235 µM | 1.06
SW684, 0.3704 µM | 1.05
SW684, 1.111 µM | 0.971
SW684, 3.333 µM | 0.829
SW684, 10 µM | 0.113
SW872, 0.00017 µM | 1.02
SW872, 0.00051 µM | 1.03
SW872, 0.00152 µM | 1.04
SW872, 0.00457 µM | 1.05
SW872, 0.01372 µM | 1.06
SW872, 0.04115 µM | 1.04
SW872, 0.1235 µM | 1.03
SW872, 0.3704 µM | 1.01
SW872, 1.111 µM | 0.835
SW872, 3.333 µM | 0.583
SW872, 10 µM | 0.188
SW982, 0.00017 µM | 0.966
SW982, 0.00051 µM | 0.95947
SW982, 0.00152 µM | 0.986
SW982, 0.00457 µM | 0.973
SW982, 0.01372 µM | 0.97
SW982, 0.04115 µM | 0.965
SW982, 0.1235 µM | 0.982
SW982, 0.3704 µM | 0.855
SW982, 1.111 µM | 0.513
SW982, 3.333 µM | 0.206
SW982, 10 µM | 0.009967
SW1353, 0.00017 µM | 0.959
SW1353, 0.00051 µM | 0.938
SW1353, 0.00152 µM | 0.985
SW1353, 0.00457 µM | 0.956
SW1353, 0.01372 µM | 0.955
SW1353, 0.04115 µM | 0.969
SW1353, 0.1235 µM | 0.957
SW1353, 0.3704 µM | 0.966
SW1353, 1.111 µM | 0.955
SW1353, 3.333 µM | 0.77
SW1353, 10 µM | 0.0145
SYO-1, 0.00017 µM | 1.02
SYO-1, 0.00051 µM | 1.01
SYO-1, 0.00152 µM | 1
SYO-1, 0.00457 µM | 0.997
SYO-1, 0.01372 µM | 1.02
SYO-1, 0.04115 µM | 0.981
SYO-1, 0.1235 µM | 0.927
SYO-1, 0.3704 µM | 0.91
SYO-1, 1.111 µM | 0.6316
SYO-1, 3.333 µM | 0.175
SYO-1, 10 µM | -0.0432
